Measurements reported in patent publication US9289003B2, “Use of compounds involved in biosynthesis of nucleic acids as cryoprotective agents” (CHR. HANSEN A/S, priority 2003, dated 2016).
Entries after “also recorded” stand apart in the source; their conditions may differ.

What was measured:
[1] = tested on: F-DVS™ CH-N 19 (frozen LD-culture); assay: Acidifying activity assay of frozen concentrated F-DVS CH-N 19 culture; format: cell-based; conditions: Example 15; 1 day and 6 days at −50° C; 0,005% w/v inoculum, 6 hrs at 30° C; Na-formate 3% w/w
Description: The additives and concentrates were mixed for 30 minutes and subsequently 150 g of the two portions was frozen in liquid nitrogen. […] Culture activity in milk (heat sterilized LAB-milk) was measured.
The concentration of the various additives is given in the figures as % w/w per gram concentrated biomass.
Culture activity in milk (LAB-milk) was measured as acidification activity after 1 day (FIG. 13) and 6 days (FIG. 14) of storage at −50° C. The activity assay is based on a 0,005% w/v inoculum and 6 hrs incubation at 30° C.

bacterial cultures = assay: Cryoprotection of bacterial cultures, summary statements of the description; format: cell-based; conditions: summary of the experiments (examples 12 and 15 cited for adenosine)
[2] = tested on: freeze-dried LD-culture of Fl-Da N; assay: Acidifying activity assay of freeze-dried Fl-Da N culture (FD-DVS); format: cell-based; conditions: 3% w/w additive, 0.005% inoculum
Description: Frozen culture was inoculated on a 0.01% (w/w) level in 200 ml UHT-sterilized reconstituted skimmed milk (RSM) containing 9.5% (w/w) solid matter and heated at 99° C. for 30 minutes (LAB-milk). The RSM was incubated at 30° C. for 6 h to permit acidification of the substrate material. The acidification activity was measured as described in Example 6: Analytical Procedure QAm-052, “acidification activity—UHT”, Chr. Hansen A/S (Denmark).
(§1) The additive was added to the concentrate as a 30% sterile solution.
To simulate the situation encountered in the industrial situation during a freezing process, the additives and concentrates were mixed and stored for 5 hours at 8° C. and subsequently frozen in liquid nitrogen and further stored at −50° C. for one day before freeze-drying. After freeze-drying was completed the culture was stored at −50° C. until analysis. […] Culture activity in milk (LAB-rnilk) was measured after 7 days of storage at −50° C.
This example describes the stability of freeze-dried LDultures (FD-DVS) of Fl-Da-N formulated with and without a number of different additives, which may act as cryprotective agents. In the experiments the.concentration of the various additives were 3% w/w per gram concentrated biomass unless other vice indicated in the figures.
After fermentation, biomass was harvested and concentrated via centrifugation from fermentation broth of Fl-Da N as described in the Materials and Method section. The cell concentrate was divided into a number of portions and was added to each of the portions. To simulate the situation encountered in the industrial situation during a freezing process, the additives and concentrates were mixed and stored for 5 hours at 8° C. and subsequently frozen in liquid nitrogen and further stored at −50° C. for one day before freezedrying. After freeze-drying was completed the culture was stored at −50° C. until analysis. […] Culture activity in milk (LAB-milk) was measured by the acidifying activity assay after 1 day and after 2 months of storage at −50° C.

[3] = tested on: F-DVS™ Fl-Da N (frozen LD-culture); assay: Acidifying activity assay of frozen concentrated F-DVS Fl-Da N culture stored at −50° C; format: cell-based; conditions: 3% w/w additive; for reduction in stability of culture without additive relative to culture stabilized by additive / loss of acidification activity of culture without additive: 13 days at −50° C; for reduction in stability of culture without additive relative to culture stabilized by additive: 0.01% inoculum, pH after 6 hrs at 30° C; for loss of acidification activity of culture without additive: corresponds to the pH difference; for ranking as cryoprotective during prolonged storage: storage extended to 21 or 49 days at −50° C
Description: In this example the stability measured by the acidification activity of a commercially produced LD-culture: F-DVS™ FI-Da N (Chr. Hansen A/S Item. No. 501691) was followed over a period of 6 months. The culture was produced and stored at −50° C. as described in the Materials and Methods section.
In contrast to what is common the first activity-measurement in this example was performed immediately after the culture were frozen as pellets in liquid nitrogen and followed by measurements after 1, 2, 12, 20 and 188 days of storage at −50° C.
as §1
To simulate a situation similar to the industrial situation during the freezing process the additives and concentrates were mixed and stored for 5 hours at 8° C. and subsequently frozen in liquid nitrogen and further stored at −50° C. […] Culture activity in milk (LAB-milk) was measured the same day as the frozen cultures were formulated.
Culture activity in milk (LAB-milk) was measured the same day as the cultures were frozen and the activity was followed periodically up to 13 days.
Experimental details were as described in Example 10, with the exception that the activity was monitored for an extended period of time.

[4] = tested on: liquid lactic acid-bacterial starter culture concentrates; conditions: 3% Na-formate; cited from earlier work

SMILES | effect on activity/stability of frozen culture [1] | effectiveness as cryoprotective agent (bacterial cultures) | effect on stability of freeze-dried culture ([2]; 2 months of storage at −50° C) | other results
Nc1ncnc2c1ncn2[C@@H]1O[C@H](COP(=O)(O)O)[C@@H](O)[C@H]1O [AMP, adenosine-5′-monophosphate] | harmful to the activity of the culture | but not AMP is effective as a cryoprotective agent |  | 
Nc1ccn([C@@H]2O[C@H](COP(=O)(O)O)[C@@H](O)[C@H]2O)c(=O)n1 [CMP, cytidine-5′-monophosphate] |  |  | preferred | 
Nc1nc2c(ncn2[C@@H]2O[C@H](COP(=O)(O)O)[C@@H](O)[C@H]2O)c(=O)[nH]1 [GMP, guanosine-5′-monophosphate] |  |  |  | reduction in stability of culture without additive relative to culture stabilized by additive [3]: 0,31 pH units; loss of acidification activity of culture without additive [3]: 50%; ranking as cryoprotective during prolonged storage [3]: better that IMP
OC[C@H]1O[C@@H](n2cnc3c(O)ncnc32)[C@H](O)[C@@H]1O [Inosine, inosine] |  | very effective as a cryoprotective agent |  | reduction in stability of culture without additive relative to culture stabilized by additive [3]: 0.41 pH units; loss of acidification activity of culture without additive [3]: 60%; ranking as cryoprotective during prolonged storage [3]: better cryoprotective of F-DVS™ FI-Da N than GMP; effect on stability of freeze-dried culture ([2]; one day of storage at −50° C): highly efficient to ensure stability of the culture
O=C[O-].[Na+] [Na-formate] | detrimental for frozen cultures; also recorded: detrimental to the activity of frozen cultures; also recorded: decrease the storage stability of frozen lactic acid bacterial starter culture |  |  | effect on storage stability of liquid starter culture concentrates [4]: effective to increase the storage stability of liquid lactic acid-bacterial starter culture concentrates
O=c1ccn([C@@H]2O[C@H](COP(=O)(O)O)[C@@H](O)[C@H]2O)c(=O)[nH]1 [UMP, uranosine-5′-monophosphate] |  |  | preferred | 
Nc1ncnc2c1ncn2[C@@H]1O[C@H](CO)[C@@H](O)[C@H]1O [adenosine, reference compound] | harmful to the activity of the culture | appears to decrease the stability of bacterial cultures | harmful to the culture | effect on stability of freeze-dried culture ([2]; one day of storage at −50° C): highly efficient to ensure stability of the culture
